Measurements taken from patent US20050203063A1, “Proteasome pathway inhibitors and related methods” (priority 2003, published 2005).

Tests used:
26S proteasomes = tested on: T1, 26S proteasomes; assay: Binding of UbSic1 to immobilized 26S proteasomes; set-up: species or system S. cerevisiae; details: 5 μM C92
T1 construct: IC50, deubiquitination of UbSic1; other: titration, epoxomicin-treated proteasomes; other: 5 μM C92
Description: FIG. 2. […] (A) Degradation of UbSic1. Purified 26S proteasomes were preincubated in the presence or absence of test compounds. UbSic1 was then added, and degradation assayed as described (6). Py mock refers to the pyridine solvent in which C23 was dissolved which was marginally inhibitory, unlike the 50% DMSO vehicle used for other test compounds. (B) Deubiquitination of UbSic1. […] UbSic1 was then added, and deubiquitination was assayed as described (6). (C) Titration curve with varying concentrations of C92 to determine half-maximal inhibition of deubiquitination. (D) C92 inhibits binding of UbSic1 to 26S proteasomes. Purified 26S proteasomes immobilized on anti-Flag beads were incubated with UbSic1 in the presence or absence of C92 as described (6). Following binding, beads were washed and analyzed by immunoblotting with anti-Sic1 polyclonal serum. (E) Binding of UbSic1 to the polyUb binding proteins Rpn10 and Rad23 is inhibited by C92. […] Following binding, beads were washed and analyzed by immunoblotting. […]
26S proteasomes were immunoprecipitated with anti-Flag resin from tagged and untagged control strains and incubated with 1 mM phenanthroline, 2.5 uM Ub-aldehyde, and 100 μM MG132 at 4° C. for 45 min. […] Washed beads were resuspended in 2×SDS sample buffer and aliquots analyzed by immunoblotting with anti-Sic1.

Gst-Rad23 = biological target: T2, Gst-Rad23 (Saccharomyces cerevisiae, UniProt P32628); assay: Native gel mobility shift of receptor protein; assay type: binding
T2 construct: made in house
T2 sequence (P32628 1-398): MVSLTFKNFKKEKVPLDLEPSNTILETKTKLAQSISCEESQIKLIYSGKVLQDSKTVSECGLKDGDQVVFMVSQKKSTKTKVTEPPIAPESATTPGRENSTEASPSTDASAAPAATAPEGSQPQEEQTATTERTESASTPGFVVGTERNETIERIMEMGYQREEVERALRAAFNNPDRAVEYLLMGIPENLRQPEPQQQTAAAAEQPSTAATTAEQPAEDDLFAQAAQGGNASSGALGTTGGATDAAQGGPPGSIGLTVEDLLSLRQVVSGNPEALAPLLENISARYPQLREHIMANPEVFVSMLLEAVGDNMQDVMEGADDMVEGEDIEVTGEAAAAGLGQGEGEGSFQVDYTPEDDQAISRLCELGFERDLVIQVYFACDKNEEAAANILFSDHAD
Description: (§1) FIG. 2. […] (A) Degradation of UbSic1. Purified 26S proteasomes were preincubated in the presence or absence of test compounds. UbSic1 was then added, and degradation assayed as described (6). Py mock refers to the pyridine solvent in which C23 was dissolved which was marginally inhibitory, unlike the 50% DMSO vehicle used for other test compounds. (B) Deubiquitination of UbSic1. […] UbSic1 was then added, and deubiquitination was assayed as described (6). (C) Titration curve with varying concentrations of C92 to determine half-maximal inhibition of deubiquitination. (D) C92 inhibits binding of UbSic1 to 26S proteasomes. Purified 26S proteasomes immobilized on anti-Flag beads were incubated with UbSic1 in the presence or absence of C92 as described (6). Following binding, beads were washed and analyzed by immunoblotting with anti-Sic1 polyclonal serum. (E) Binding of UbSic1 to the polyUb binding proteins Rpn10 and Rad23 is inhibited by C92. Recombinant Gst-Rpn10 and Gst-Rad23 (1 μg each) were immobilized on glutathione sepharose beads and then incubated with UbSic1 in the presence or absence of C92. Following binding, beads were washed and analyzed by immunoblotting. (F) C92 interacts with multiUb chains. Equivalent amounts (5 μg) of purified Gst, Gst-fusion protein or multiUb chains were incubated with C92 or C1 before being loaded on a 5% native polyacryamide gel. […]

Gst-Rpn10 = biological target: T3, Gst-Rpn10 (Saccharomyces cerevisiae, UniProt P38886); assay: Native gel mobility shift of receptor protein; assay type: binding
T3 construct: made in house
T3 sequence (P38886 1-268): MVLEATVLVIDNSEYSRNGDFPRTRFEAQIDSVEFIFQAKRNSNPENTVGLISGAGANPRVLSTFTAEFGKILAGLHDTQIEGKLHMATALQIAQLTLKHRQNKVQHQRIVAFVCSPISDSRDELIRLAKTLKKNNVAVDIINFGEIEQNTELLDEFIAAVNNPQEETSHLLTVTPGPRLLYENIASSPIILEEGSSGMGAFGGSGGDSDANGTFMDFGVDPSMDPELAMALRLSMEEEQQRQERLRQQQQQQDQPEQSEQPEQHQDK
Description: as §1

`O=C(Nc1ccc(/C=C/c2ccc(NC(=O)c3cc(S(=O)(=O)O)c4cccnc4c3O)cc2S(=O)(=O)O)c(S(=O)(=O)O)c1)c1cc(S(=O)(=O)O)c2cccnc2c1O` [Compound 92] was tested, and the “inhibition of binding of UbSic1 to 26S proteasomes” value (26S proteasomes) was “strongly inhibited binding”, the “native gel mobility of Gst-Rad23” value (Gst-Rad23) was “not Gst-Rpn10 or Gst-Rad23, was altered” and the “native gel mobility of Gst-Rpn10” value (Gst-Rpn10) was “not Gst-Rpn10 or Gst-Rad23, was altered”.
